According to patent US20250163009A1, “BENZOTHIA(DIA)ZEPINE COMPOUNDS FOR TREATMENT OF HBV AND HDV” (Assembly Biosciences, Inc., priority 2022, published 2025):

Tested on: HBV
Experiment: HepG2-NTCP infection protocol, HBeAg quantification by ECL-ELISA
Format: cell-based
Settings: Hepatitis B virus, HepG2-NTCP cells infected with HBV at MOI 50; compound 24 hours, then 72 hours; HBeAg in supernatant
Protocol: HepG2 cells expressing the sodium taurocholate cotransporting polypeptide (HepG2-NTCP) were maintained in culture using HepG2-NTCP growth medium (DMEM (HyClone, Cat #SH30243.02) supplemented with 10% FBS, 150 μg/mL G418 (Alfa Aesar, Cat #J62671), 50 U/mL penicillin-streptomycin (Invitrogen, Cat #15140-122), and 0.5 μg/mL blasticidin (Sigma, Cat #15205)). Prior to infection, the cells were washed twice with 1×DPBS (Invitrogen, Cat #14190-136) and treated with 3 mL of 0.05% trypsin (Invitrogen, Cat #25200-056) to dissociate the cells. Following dissociation, 10 mL of HepG2-NTCP growth medium was added to the cells to neutralize the trypsin and the cells were then centrifuged at 1,300 rpm for 5 minutes. Following centrifugation, the cells were resuspended in 10 mL of HepG2-NTCP growth medium, counted, and then centrifuged at 1,300 rpm for 5 minutes. The cell pellet was resuspended in DMEM supplemented with 5% FBS, 50 U/mL penicillin-streptomycin, 4% PEG-8000 (Hamilton Research, Cat #HR2-515), and 1% DMSO (Sigma, Cat #D4540) to a density of 5.6×10^5 cells/mL and infected with HBV at an MOI of 50. Immediately after infection, 90 μL of the cell/HBV mixture was added to a 96-well plate containing 10 μL of compound and incubated at 37° C. for 24 hours (2% final DMSO concentration). After the incubation, the infection media was removed and replaced with DMEM supplemented with 5% FBS, 50 U/mL penicillin-streptomycin, and 1% DMSO and incubated for an additional 72 hours. At the end of the incubation, the plates were spun at 1,800 rpm for 8 minutes and the supernatant was removed for HBeAg quantification using electrochemiluminescence enzyme-linked immunosorbent assays (ECL-ELISA).
To conduct the HBeAg ECL-ELISA, Lumitrack high-binding 96-well plates (Greiner, Cat #655074) were treated with 625 ng/mL HBeAg mAb (Biocheck, Cat #70426) in 1×DPBS for 2 hours at 25° C. with shaking. The HBeAg mAb solution was then removed and the plates treated with 1×DPBS containing 0.5% bovine serum albumin (BSA) (Sigma, Cat #A7030-100 g) for 2 hours at 25° C. with shaking. The HBeAg-coated plates were then washed 4 times with 1×DPBS containing 0.05% Tween 20 (DPBS-T) (Thermo Fisher Scientific, Cat #J61544-K2). Following the wash, 90 μL of HRP-conjugated antibody (Fitzgerald, Cat #61-H10K), diluted 1:8,000 in 1×DPBS-T containing 0.5% BSA, was added to the HBeAg-coated plates along with 10 μL of sample. The plates were then incubated for 2 hours at 25° C. with shaking. Following the incubation, the sample was then removed and 200 μL of 1×PBS-T was added and the plates were incubated for 10 minutes at 25° C. with shaking. The plates were then washed 6 times with 1×PBS-T and blotted dry. 80 μL of ECL substrate (Millipore, Cat #WBKLS0500) was then added to the plate and the luminescence was measured using a Tecan M1000 Pro plate reader.

For `CCCCC1CN([C@H]2CC[C@H](OC)CC2)c2cc(SC)c(O/C=C(\F)C(=O)O)cc2S(=O)(=O)N1C` (stereo partly shown) [Example 56], the EC50 was < 0.1 µM.
